From US20240166646A1, “1H-PYRROLO[2,3-B]PYRIDINE DERIVATIVES AS BCL-2 INHIBITORS FOR THE TREATMENT OF NEOPLASTIC AND AUTOIMMUNE DISEASES” (Newave Pharmaceutical Inc., priority 2020, published 2024)
pIC50: −log10 of the molar value. Counter-ions that a name gives are not always drawn.

Legend:
[1] = target: Bcl-2 (Homo sapiens (Human), UniProt P10415); assay: Bcl-2 competition binding (fluorescence polarization) assay; conditions: fluorescein labeled BH3 peptide 15 nM, Bcl-2 protein 30 nM, 3 hours of incubation at room temperature
Description: Biological Example 1: Bcl-2 Competition Binding (Fluorescence Polarization) Assay
The fluorescence-labeled 23 amino acid peptide BH3 was purchased from CalBiochem ([…]). […] This binding assay was performed in 96-well plate and with each assay contained 15 and 30 nM of labeled peptide and purified Bcl-2 protein (purchased from R&D Systems, Inc). The assay buffer contained 20 mM Hepes (pH 7.0), 50 mM KCl, 5 mM MgCl2, 20 mM Na2MoO4, 0.1 mg/mi Bovine Gamma Globulin and 0.01% NP40. Compounds were diluted in DMS0 and added to the final assay with concentration range from 20 μM to 2 nM. The polarization degree (mP) value was determined by BioTek Synergy II with background subtraction after 3 hours of incubation at room temperature. IC50 was calculated using Prism software with sigmoidal dose-response curve fitting. ABT-737 was used as reference compound. Such assays, carried out with a range of doses of test compounds, allowed the determination of an approximate IC50 value.

[2] = system: BCL-2-dependent acute lymphoblastic leukemia (ALL) cell line RS4; 11 with G101V mutation; assay: In vitro anti-proliferation assay (ATPlite) in RS4; 11 with G101V mutation; format: cell-based; conditions: about 72 hours incubation, medium with 5% FBS or 10% normal human serum, ATPlite luminescence
Description: Cell antiproliferation was assayed by PerkinElmer ATPlite™ Luminescence Assay System. Briefly, the various test cancer cell lines were plated at a density of about 1×10^4 cells per well in Costar 96-well plates, and were incubated with different concentrations of compounds for about 72 hours in medium supplemented with 5% FBS or 10% normal human serum (NHS). One lyophilized substrate solution vial was then reconstituted by adding 5 mL of substrate buffer solution, and was agitated gently until the solution was homogeneous. About 50 μL of mammalian cell lysis solution was added to 100 μL of cell suspension per well of a microplate, and the plate was shaken for about five minutes in an orbital shaker at ˜700 rpm. This procedure was used to lyse the cells and to stabilize the ATP. Next, 50 μL substrate solution was added to the wells and microplate was shaken for five minutes in an orbital shaker at ˜700 rpm. Finally, the luminescence was measured by a PerkinElmer TopCount® Microplate Scintillation Counter. Such assays, carried out with a range of doses of test compounds, allowed the determination of the cellular anti-antiproliferative IC50 of the compounds of the present invention.

Sequence of Bcl-2 (P10415 whole entry): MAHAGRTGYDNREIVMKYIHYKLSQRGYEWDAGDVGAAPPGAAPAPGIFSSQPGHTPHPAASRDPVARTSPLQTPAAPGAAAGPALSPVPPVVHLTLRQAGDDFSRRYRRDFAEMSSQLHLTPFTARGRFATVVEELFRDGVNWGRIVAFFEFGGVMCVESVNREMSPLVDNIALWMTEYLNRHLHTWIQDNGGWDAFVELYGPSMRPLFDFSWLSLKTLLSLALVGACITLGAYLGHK

Row | SMILES | pIC50 [1] | pIC50 [2] | pIC50 ([2]; RS4-11)
1 | Cc1ccccc1[C@@H]1CCCN1C1CC2(CCN(c3ccc(C(=O)NS(=O)(=O)c4ccc(NCC5CCOCC5)c([N+](=O)[O-])c4)c(N4c5cc6cc[nH]c6nc5O[C@@H]5COC[C@H]54)c3)CC2)C1 [Example 4, 2-[(11R,15S)-13,16-dioxa-2,4,10-triazatetracyclo[7.7.0.0^{3,7}.0^{11,15}]hexadeca-1(9),2,5,7-tetraen-10-yl]-4-{2-[(2S)-2-(2-methylphenyl)pyrrolidin-1-yl]-7-azaspiro[3.5]nonan-7-yl}-N-{3-nitro-4-[(oxan-4-ylmethyl)amino]benzenesulfonyl}benzamide] | 9.74 | 7.55 | 
2 | C=C(C)c1ccccc1[C@@H]1CCCN1C1CC2(CCN(c3ccc(C(=O)NS(=O)(=O)c4ccc(NCC5CCOCC5)c([N+](=O)[O-])c4)c(N4c5cc6cc[nH]c6nc5O[C@@H]5COC[C@H]54)c3)CC2)C1 [Example 5, 2-[(11R,15S)-13,16-dioxa-2,4,10-triazatetracyclo[7.7.0.0^{3,7}.0^{11,15}]hexadeca-1(9),2,5,7-tetraen-10-yl]-N-{3-nitro-4-[(oxan-4-ylmethyl)amino]benzenesulfonyl}-4-{2-[(2S)-2-[2-(prop-1-en-2-yl)phenyl]pyrrolidin-1-yl]-7-azaspiro[3.5]nonan-7-yl}benzamide hydrochloride] | 10.17 | 8.02 | 
3 | C=Cc1ccccc1[C@@H]1CCCN1C1CC2(CCN(c3ccc(C(=O)NS(=O)(=O)c4ccc(NCC5CCOCC5)c([N+](=O)[O-])c4)c(N4c5cc6cc[nH]c6nc5O[C@@H]5COC[C@H]54)c3)CC2)C1 [Example 6, 2-[(11R,15S)-13,16-dioxa-2,4,10-triazatetracyclo[7.7.0.0^{3,7}.0^{11,15}]hexadeca-1(9),2,5,7-tetraen-10-yl]-4-{2-[(2S)-2-(2-ethenylphenyl)pyrrolidin-1-yl]-7-azaspiro[3.5]nonan-7-yl}-N-{3-nitro-4-[(oxan-4-ylmethyl)amino]benzenesulfonyl}benzamide hydrochloride] | 10.08 | 7.54 | 
4 | CCc1ccccc1[C@@H]1CCCN1C1CC2(CCN(c3ccc(C(=O)NS(=O)(=O)c4ccc(NCC5CCOCC5)c([N+](=O)[O-])c4)c(N4c5cc6cc[nH]c6nc5O[C@@H]5COC[C@H]54)c3)CC2)C1 [Example 7, 2-[(11R,15S)-13,16-dioxa-2,4,10-triazatetracyclo[7.7.0.0^{3,7}.0^{11,15}]hexadeca-1(9),2,5,7-tetraen-10-yl]-4-{2-[(2S)-2-(2-ethylphenyl)pyrrolidin-1-yl]-7-azaspiro[3.5]nonan-7-yl}-N-{3-nitro-4-[(oxan-4-ylmethyl)amino]benzenesulfonyl}benzamide hydrochloride] | 10.18 | 7.94 | 
5 | O=C(NS(=O)(=O)c1ccc(NCC2CCOCC2)c([N+](=O)[O-])c1)c1ccc(N2CCC3(CC2)CC(N2CCC[C@H]2c2ccccc2C2CC2)C3)cc1N1c2cc3cc[nH]c3nc2O[C@@H]2COC[C@H]21 [Example 8, 4-{2-[(2S)-2-(2-cyclopropylphenyl)pyrrolidin-1-yl]-7-azaspiro[3.5]nonan-7-yl}-2-[(11R,15S)-13,16-dioxa-2,4,10-triazatetracyclo[7.7.0.0^{3,7}.0^{11,15}]hexadeca-1(9),2,5,7-tetraen-10-yl]-N-{3-nitro-4-[(oxan-4-ylmethyl)amino]benzenesulfonyl}benzamide hydrochloride] | 10.18 | 8.04 | 
6 | CNc1ccccc1[C@@H]1CCCN1C1CC2(CCN(c3ccc(C(=O)NS(=O)(=O)c4ccc(NCC5CCOCC5)c([N+](=O)[O-])c4)c(N4c5cc6cc[nH]c6nc5O[C@@H]5COC[C@H]54)c3)CC2)C1 [Example 17, 2-[(11R,15S)-13,16-dioxa-2,4,10-triazatetracyclo[7.7.0.0^{3,7}.0^{11,15}]hexadeca-1(9),2,5,7-tetraen-10-yl]-4-{2-[(2S)-2-[2-(methylamino)phenyl]pyrrolidin-1-yl]-7-azaspiro[3.5]nonan-7-yl}-N-{3-nitro-4-[(oxan-4-ylmethyl)amino]benzenesulfonyl}benzamide] | 9.65 | 7.00 | 
7 | CC(C)(C#N)c1ccccc1[C@@H]1CCCN1C1CC2(CCN(c3ccc(C(=O)NS(=O)(=O)c4ccc(NCC5CCOCC5)c([N+](=O)[O-])c4)c(N4c5cc6cc[nH]c6nc5O[C@@H]5COC[C@H]54)c3)CC2)C1 [Example 19, 4-{2-[(2S)-2-[2-(1-cyano-1-methylethyl)phenyl]pyrrolidin-1-yl]-7-azaspiro[3.5]nonan-7-yl}-2-[(11R,15S)-13,16-dioxa-2,4,10-triazatetracyclo[7.7.0.0^{3,7}.0^{11,15}]hexadeca-1(9),2,5,7-tetraen-10-yl]-N-{3-nitro-4-[(oxan-4-ylmethyl)amino]benzenesulfonyl}benzamide hydrochloride] | 10.00 | 7.14 | 
8 | CC(C)Oc1ccccc1[C@@H]1CCCN1C1CC2(CCN(c3ccc(C(=O)NS(=O)(=O)c4ccc(NCC5CCOCC5)c([N+](=O)[O-])c4)c(N4c5cc6cc[nH]c6nc5O[C@@H]5COC[C@H]54)c3)CC2)C1 [Example 20, 2-[(11R,15S)-13,16-dioxa-2,4,10-triazatetracyclo[7.7.0.0^{3,7}.0^{11,15}]hexadeca-1(9),2,5,7-tetraen-10-yl]-4-{2-[(2S)-2-(2-isopropoxyphenyl)pyrrolidin-1-yl]-7-azaspiro[3.5]nonan-7-yl}-N-{3-nitro-4-[(oxan-4-ylmethyl)amino]benzenesulfonyl}benzamide] | 9.52 | 7.22 | 
9 | COC1(C)CCC(CNc2ccc(S(=O)(=O)NC(=O)c3ccc(N4CCC5(CC4)CC(N4CCC[C@H]4c4ccccc4C(C)C)C5)cc3N3c4cc5cc[nH]c5nc4O[C@@H]4COC[C@H]43)cc2[N+](=O)[O-])CC1 (stereo partly drawn) [Example 36, 4-(2-((S)-2-(2-isopropylphenyl)pyrrolidin-1-yl)-7-azaspiro[3.5]nonan-7-yl)-N-((4-((((1r,4r)-4-methoxy-4-methylcyclohexyl)methyl)amino)-3-nitrophenyl)sulfonyl)-2-((5aR,8aS)-5a,6,8,8a-tetrahydrofuro[3,4-b]pyrrolo[3′,2′:5,6]pyrido[3,2-e][1,4]oxazin-5(1H)-yl)benzamide hydrochloride] | 9.51 | 7.25 | 
10 | CO[C@]1(C)CC[C@H](CNc2ccc(S(=O)(=O)NC(=O)c3ccc(N4CCC5(CC4)CC(N4CCC[C@H]4c4ccccc4C(C)C)C5)cc3N3c4cc5cc[nH]c5nc4O[C@@H]4COC[C@H]43)cc2[N+](=O)[O-])CC1 [Example 37, 4-(2-((S)-2-(2-isopropylphenyl)pyrrolidin-1-yl)-7-azaspiro[3.5]nonan-7-yl)-N-((4-((((1s,4s)-4-methoxy-4-methylcyclohexyl)methyl)amino)-3-nitrophenyl)sulfonyl)-2-((5aR,8aS)-5a,6,8,8a-tetrahydrofuro[3,4-b]pyrrolo[3′,2′:5,6]pyrido[3,2-e][1,4]oxazin-5(1H)-yl)benzamide hydrochloride] | 9.45 | 7.82 | 
11 | Cc1ccccc1[C@@H]1CCCN1C1CC2(CCN(c3ccc(C(=O)NS(=O)(=O)c4ccc(NCC5(F)CCOCC5)c([N+](=O)[O-])c4)c(N4c5cc6cc[nH]c6nc5O[C@@H]5COC[C@H]54)c3)CC2)C1 [Example 38, N-((4-(((4-fluorotetrahydro-2H-pyran-4-yl)methyl)amino)-3-nitrophenyl)sulfonyl)-2-((5aR,8aS)-5a,6,8,8a-tetrahydrofuro[3,4-b]pyrrolo[3′,2′:5,6]pyrido[3,2-e][1,4]oxazin-5(1H)-yl)-4-(2-((S)-2-(o-tolyl)pyrrolidin-1-yl)-7-azaspiro[3.5]nonan-7-yl)benzamide] | 9.69 |  | 7.87
12 | Cc1ccccc1[C@@H]1CCCN1C1CC2(CCN(c3ccc(C(=O)NS(=O)(=O)c4ccc(NC[C@H]5COCCO5)c([N+](=O)[O-])c4)c(N4c5cc6cc[nH]c6nc5O[C@@H]5COC[C@H]54)c3)CC2)C1 [Example 39, N-((4-((((S)-1,4-dioxan-2-yl)methyl)amino)-3-nitrophenyl)sulfonyl)-2-((5aR,8aS)-5a,6,8,8a-tetrahydrofuro[3,4-b]pyrrolo[3′,2′:5,6]pyrido[3,2-e][1,4]oxazin-5(1H)-yl)-4-(2-((S)-2-(o-tolyl)pyrrolidin-1-yl)-7-azaspiro[3.5]nonan-7-yl)benzamide] | 9.72 |  | 7.31
